The values that follow come from patent US7470714B2, “GM-95-containing antitumor effect potentiator, combined antitumor preparation and antitumor agent” (Sosei Co., Ltd., priority 2003, dated 2008).

One data set has as its system K562 cells. Briefly: Apoptosis induction into K562 cells by combined use, flow cytometry with APO 2.7 antibody. The class given is cell-based. Particulars: K562 cells cultured 10 days with 2 μM Telomestatin, then 72 hours with the antitumor substance. The protocol:
K562 cells (available from ATCC (Rockville, Md.)) were cultured for 10 days in the presence of 2 μM Telomestatin (GM-95 substance). Subsequently, the Telomestatin-treated K562 cells were incubated for 72 hours together with Imanitib, Daunorubicin (DNR), Mitoxantrone (MIT), or Vincristine (VCR). The expression of apoptosis was measured by flow cytometric analysis using an FITC conjugate APO 2.7 monoclonal antibody (which is generated to a mitochondrial membrane protein (7A6 antigen) and is expressed in cells wherein apoptosis takes place). In the figures, the terms “control,” “TMS,” “Imanitib,” “DNR,” “MIT,” and “VCR” represent a control substance, the GM-95 substance (Telomestatin), Imanitib, Daunorubicin, Mitoxantrone, and Vincristine, respectively.

Another data set deals with HT1080 cells. Nature of the data set: Combined use of GM-95 substance with another antitumor substance, survival rate by MTT method. The class given is cell-based. The protocol: Tumor cells were cultured under the conditions described below using the GM-95 substance and another antitumor substance in the same manner as in Example 3. After a certain period of time had passed, the survival rate of the tumor cells was measured.
HT1080 cells were used as tumor cells. In the following experiments, the tumor cells were cultured in a medium formed by adding 10% FBS to RPMI1640 (SIGMA, R8758) using a CO2 incubator (temperature: 37° C.; humidity: 100%; CO2 concentration: 5%).
HT1080 cells were cultured under conditions described in the following (A) to (C). After completion of the culture, the survival rate of the tumor cells was measured by the MTT method. • (A): 0.5 μM GM-95 substance and each of the aforementioned antitumor substances with a certain concentration were simultaneously added to the HT1080 cells, and the tumor cells were then cultured for 2 days. After completion of the culture, the survival rate of the tumor cells was measured. • (B): The tumor cells were previously cultured for 7 days together with 0.5 μM or 1 μM GM-95 substance. […] After completion of the culture, the survival rate of the tumor cells was measured. • (C): The tumor cells were previously cultured for 7 or 14 days together with 0.5 μM or 1 μM GM-95 substance. […] After completion of the culture, the survival rate of the tumor cells was measured. […]
(In general: Tetrazolium assays rely on reduction of a dye to a coloured formazan, in cell work by metabolically active cells.)

Data set [1] concerns several types of cancer cells. Briefly: Action of the GM-95 substance on several types of cancer cells. The class given is cell-based. The protocol: The inventors have already reported the details thereof (refer to International Publication WO00/24747, for example). The GM-95 substance is the strongest telomerase inhibitor among telomerase inhibitors including synthetic compounds that have been reported to date. The action of the GM-95 substance on several types of cancer cells was analyzed. […] In addition, the aged cells had lost their tumorigenicity.

The nature of another data set: Solubility in solvents. The class given is physicochemical.
In the next data set the test system is MCF-7 cells. Nature of the data set: Combined use of GM-95 substance with another antitumor substance, survival rate by MTT method. The class given is cell-based. The following applies: 1 μM or 2 μM GM-95 for 7 or 14 days, then 2 days with antitumor substance. The protocol:
Tumor cells were cultured under the conditions described below using the GM-95 substance and another antitumor substance in the same manner as in Example 5. After a certain period of time had passed, the survival rate of the tumor cells was measured.
MCF-7 cells were used as tumor cells. In the following experiments, the tumor cells were cultured in a medium formed by adding 10% FBS to DMEM (SIGMA, D6046) using a CO2 incubator (temperature: 37° C.; humidity: 100%; CO2 concentration: 5%).
MCF-7 cells were cultured under conditions described in the following (D) and (E). After completion of the culture, the survival rate of the tumor cells was measured by the MTT method. • (D): The tumor cells were previously cultured for 7 days together with 1 μM or 2 μM GM-95 substance. Thereafter, each of the aforementioned antitumor substances with a certain concentration was added to the cells in the absence of the GM-95 substance, followed by culture for 2 days. After completion of the culture, the survival rate of the tumor cells was measured. • (E): The tumor cells were previously cultured for 14 days together with 1 μM or 2 μM GM-95 substance. […] After completion of the culture, the survival rate of the tumor cells was measured. […]

On to `COc1cccc2c1C(=O)c1c(O)c3c(c(O)c1C2=O)C[C@@](O)(C(C)=O)C[C@@H]3O[C@H]1C[C@H](N)[C@H](O)[C@H](C)O1` [Daunorubicin], for which the “Effect of inducing apoptosis by combined use of Telomestatin with another antitumor substance” value (“Effect of inducing apoptosis” below) with K562 cells was “act synergistically”.

With `Cc1oc2nc1-c1nc(co1)-c1nc(co1)-c1nc(co1)-c1nc(co1)-c1nc(co1)C1=NC(CS1)c1nc-2c(C)o1` (stereo not drawn) [GM-95], the “Antitumor action by combined use of the GM-95 substance with another antitumor substance (survival rate)” value was “enhanced” in the data set on HT1080 cells (HT1080, 0.5 μM or 1 μM GM-95, simultaneous or 7 or 14 days pre-treatment, then 2 days with antitumor substance) and “enhanced” in the data set with MCF-7 cells. Also, the “Number of surviving cells” value in the data set on HT1080 cells (HT1080 cultured for 14 days in the presence of 1 μM GM-95 substance) is on record as “very small”. Besides, the “Induction of aging of cells attended with telomere shortening” value in data set [1] was “induces the aging of cells”. In “Solubility in solvents” (acetone), the Solubility in acetone result was “insoluble”. For the same compound, the “Solubility in a mixture consisting of chloroform and methanol (1:1)” value in the data set “Solubility in solvents” (chloroform and methanol (1:1)) is reported as “soluble”. Besides, the Solubility in water entry in the data set “Solubility in solvents” (water) is “insoluble”. Also, the “Effect of inducing apoptosis” value with K562 cells is given as “act synergistically”.

Take `Cc1ccc(NC(=O)c2ccc(CN3CCN(C)CC3)cc2)cc1Nc1nccc(-c2cccnc2)n1` [Imanitib]: the “Effect of inducing apoptosis” value in the data set with K562 cells was “act synergistically”.

`O=C1c2c(O)ccc(O)c2C(=O)c2c(NCCNCCO)ccc(NCCNCCO)c21` [Mitoxantrone]: the “Effect of inducing apoptosis” value in the data set on K562 cells was “act synergistically”.

With `CC[C@]1(O)C[C@H]2CN(CCc3c([nH]c4ccccc34)[C@@](C(=O)OC)(c3cc4c(cc3OC)N(C=O)[C@H]3[C@@](O)(C(=O)OC)[C@H](OC(C)=O)[C@]5(CC)C=CCN6CC[C@]43[C@@H]65)C2)C1` [Vincristine], the “Effect of inducing apoptosis” value in the data set on K562 cells is “act synergistically”.
